# Source: the Kinase Knowledgebase extract (Sharma et al. 2016)
# Molecular target: CDK2 (human) (UniProt P24941)
# Test: Enzyme Assay
row,Compound,IC50
1,COc1cc2nc(-c3n[nH]cc3NC(=O)c3ccoc3CN(C)C)[nH]c2cc1OC,< 1000 nM
2,O=C(Nc1c[nH]nc1-c1nc2cc(CN3CCOCC3)ccc2[nH]1)C1CCCO1 (configuration not stated),< 1000 nM
3,O=C(Nc1c[nH]nc1-c1nc2cc(CN3CCOCC3)ccc2[nH]1)NN1CCCC1,< 1000 nM
4,O=C(Nc1c[nH]nc1-c1nc2cc(CN3CCOCC3)ccc2[nH]1)Nc1c(F)cc(F)cc1F,< 1000 nM
5,O=C(Nc1ccc(F)cc1F)Nc1c[nH]nc1-c1nc2cc(CN3CCOCC3)ccc2[nH]1,< 1000 nM
6,O=C(CC1CC1)Nc1c[nH]nc1-c1nc2cc(CN3CCOCC3)ccc2[nH]1,< 1000 nM
7,O=C(Nc1cc(F)ccc1F)Nc1c[nH]nc1-c1nc2cc(CN3CCOCC3)ccc2[nH]1,< 1000 nM
8,COc1cc2nc(-c3n[nH]cc3NC(=O)c3cc(Cl)cc(N4CCN(C)CC4)c3)[nH]c2cc1OC,< 1000 nM
9,COc1ccc(Cl)cc1C(=O)Nc1c[nH]nc1-c1nc2cc(CN3CCN(C)CC3)ccc2[nH]1,< 1000 nM
10,COc1ccc(C#N)cc1C(=O)Nc1c[nH]nc1-c1nc2cc(CN3CCOCC3)ccc2[nH]1,< 1000 nM
11,O=C(Nc1c[nH]nc1-c1nc2cc(CN3CCOCC3)ccc2[nH]1)NN1CCOCC1,< 1000 nM
12,CN(C)NC(=O)Nc1c[nH]nc1-c1nc2cc(CN3CCOCC3)ccc2[nH]1,< 1000 nM
